We go through seven compounds from patent US6509344B1, “Indenoisoquinolines as antineoplastic agents” (The United States of America as represented by the …, priority 1998, dated 2003).

pIC50: −log10 of the molar value. Like-named read-outs stand apart in the source and are kept apart here.

In one series the test system is human topoisomerase II. Put plainly: Topoisomerase II-mediated DNA cleavage assay (5'-end-labeled human c-myc DNA). Format: biochemical.
The subject of the next series is SN12C. The series is described as follows: NCI human cancer cell line screen (COMPARE screening), Renal SN12C. Format: cell-based. Conditions: for IC50: Homo sapiens, SN12C, concentration causing 50% growth inhibition, read-out: Cytotoxicity (G150 in μM) Renal SN12C. The text has this: (§1) Considering the diversity of cancer in terms of cell type, morphology, growth rate and other cellular characteristics, the U.S. National Cancer Institute (NCI) has developed a “disease-oriented” approach to anticancer activity screening (M. R. Boyd, in “Principle of Practice of Oncology” […]. Rosenberg (Eds.) Vol. 3, PPO Update, No. 10, 1989). This in vitro prescreening system is based on the measurement of anticancer cytotoxicity against human cancer cell line panels consisting of approximately 60 cell lines of major human cancers (including leukemia and slower growing tumor cells such as lung, colon, breast, skin, kidney, etc.) and is referred hereinafter as “COMPARE” screening. An important advantage of the new in vitro screening panels is the opportunity to facilitate identification of compounds that are selectively more cytotoxic to cells of certain types of cancers, thus increasing the ability to select compounds for further study with respect to specific diseases. The indenoisoquinolines were examined for antiproliferative activity against the human cancer cell lines in the National Cancer Institute screen (COMPARE screening), in which the activity of each compound was evaluated with approximately […] different cancer cell lines of diverse tumor origins.

The test system of the next series is UACC-62. Put plainly: NCI human cancer cell line screen (COMPARE screening), Melanoma UACC-62. The note with it: for IC50: Homo sapiens, UACC-62, concentration causing 50% growth inhibition, read-out: Cytotoxicity (G150 in μM) Melanoma UACC-62. The class given is cell-based.
Description: as §1

The next series has as its system MDA-MB-435. The series is described as follows: NCI human cancer cell line screen (COMPARE screening), Breast MDA-MB-435. The note with it: for IC50: Homo sapiens, MDA-MB-435, concentration causing 50% growth inhibition, read-out: Cytotoxicity (G150 in μM) Breast MDA-MB-435. The class given is cell-based.
Description: as §1

The subject of another series is DU-145. Put plainly: NCI human cancer cell line screen (COMPARE screening), Prostate DU-145. The class given is cell-based. The note with it: for IC50: Homo sapiens, DU-145, concentration causing 50% growth inhibition, read-out: Cytotoxicity (G150 in μM) Prostate DU-145.
Description: as §1

The next series deals with HCT-116. Put plainly: NCI human cancer cell line screen (COMPARE screening), Colon HCT-116. The class given is cell-based. Conditions: for IC50: Homo sapiens, HCT-116, concentration causing 50% growth inhibition, read-out: Cytotoxicity (G150 in μM) Colon HCT-116.
Description: as §1

The next series relates to HOP-62. Put plainly: NCI human cancer cell line screen (COMPARE screening), Lung HOP-62. The note with it: for IC50: Homo sapiens, HOP-62, concentration causing 50% growth inhibition, read-out: Cytotoxicity (G150 in μM) Lung HOP-62. The class given is cell-based.
Description: as §1

The next series concerns OVCAR-3. Put plainly: NCI human cancer cell line screen (COMPARE screening), Ovarian OVCAR-3. Format: cell-based. The note with it: for IC50: Homo sapiens, OVCAR-3, concentration causing 50% growth inhibition, read-out: Cytotoxicity (G150 in μM) Ovarian OVCAR-3.
Description: as §1

The test system of series [1] is approximately 55 different cancer cell lines of diverse tumor origins. The series is described as follows: NCI screen mean graph midpoint over all cell lines tested. The class given is cell-based, human. Conditions: for pIC50: average GI50 for all cell lines tested (approximately 55), values outside test range taken as 10^-8 or 10^-4 molar, read-out: MGM (mean graph midpoint).
Description: as §1

Another series has as its system SF-539. The series is described as follows: NCI human cancer cell line screen (COMPARE screening), CNS SF-539. Format: cell-based. The note with it: for IC50: Homo sapiens, SF-539, concentration causing 50% growth inhibition, read-out: Cytotoxicity (G150 in μM) CNS SF-539.
Description: as §1

A further series deals with T1, topoisomerase I (Homo sapiens, UniProt P11387).
T1 sequence (P11387 1-765): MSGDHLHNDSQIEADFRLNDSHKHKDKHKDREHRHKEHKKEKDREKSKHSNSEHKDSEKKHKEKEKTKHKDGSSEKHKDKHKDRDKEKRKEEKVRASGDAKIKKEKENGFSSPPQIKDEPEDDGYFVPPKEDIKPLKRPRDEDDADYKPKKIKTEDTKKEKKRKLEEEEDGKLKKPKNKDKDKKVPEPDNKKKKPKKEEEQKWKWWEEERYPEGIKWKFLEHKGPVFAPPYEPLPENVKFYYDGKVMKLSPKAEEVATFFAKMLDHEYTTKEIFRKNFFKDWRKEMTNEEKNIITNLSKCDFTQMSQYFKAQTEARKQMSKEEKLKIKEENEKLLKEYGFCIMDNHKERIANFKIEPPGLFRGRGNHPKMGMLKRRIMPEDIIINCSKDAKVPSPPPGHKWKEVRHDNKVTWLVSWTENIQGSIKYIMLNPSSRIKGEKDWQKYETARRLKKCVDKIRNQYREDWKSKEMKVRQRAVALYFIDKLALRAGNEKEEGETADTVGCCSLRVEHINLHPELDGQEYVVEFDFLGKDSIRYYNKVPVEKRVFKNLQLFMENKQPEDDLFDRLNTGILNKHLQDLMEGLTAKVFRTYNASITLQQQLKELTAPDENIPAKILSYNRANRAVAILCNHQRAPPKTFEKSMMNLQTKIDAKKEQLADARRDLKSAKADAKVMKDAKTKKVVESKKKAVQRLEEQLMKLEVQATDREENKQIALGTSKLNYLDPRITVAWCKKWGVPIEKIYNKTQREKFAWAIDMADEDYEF
The series is described as follows: Topoisomerase I-mediated DNA cleavage assay (3'-end-labeled 161 bp pBluescript SK(-) fragment). The class given is biochemical. The note with it: for Top 1 Cleavage: relative to the activity of 1 μM camptothecin. The method, then: Topoisomerase I-Mediated DNA Cleavage Reactions Using 3′-End-labeled 161 BP Plasmid DNA
The 161 bp fragment from pBluescript SK(−) phagemid DNA (Stratagene, La Jolla, Calif.) was cleaved with the restriction endonuclease Pvu II and Hind III (New England Biolabs, Beverly, Mass.) in supplied NE buffer 2 (10 μL reactions) for 1 h at 37° C., separated by electrophoresis in a 1% agarose gel made in 1×TBE buffer. The 161 bp fragment was eluted from the gel slice (centrilutor by Amicon) and concentrated in a centricon 50 centrifugal concentrator (Amicon, Beverly, Mass.). Approximately 200 ng of the fragment was 3′-end-labeled at the Hind III site by fill-in reaction with [alpha-^32P]-dCTP and 0.5 mM dATP, dGTP, and dTTP, in React 2 buffer (50 mM Tris-HCl, pH 8.0, […], 50 mM NaCl) with 0.5 units of DNA polymerase I (Klenow fragment). Labeling reactions were followed by phenol-chloroform extraction and ethanol precipitation. The resulting 161 bp 3′-endlabeled DNA fragment was resuspended in water. Aliquots (approximately 50,000 dpm/reaction) were incubated with topoisomerase I at 30° C. for 15 min in the presence of the indicated drug. Reactions were terminated by adding 0.5% SDS. After ethanol precipitation, the samples were resuspended in loading buffer (80% formamide, 10 mM sodium hydroxide, 1 mM sodium EDTA, 0.1% xylene cyanol, and 0.1% bromophenol blue, pH 8.0), and separated in a denaturing gel (16% polyacrylamide, 7 M urea) run at 51° C. The gel was dried and visualized by using a Phosphoimager and ImageQuant software (Molecular Dynamics, Sunnyvale, Calif.).

Series [2] deals with T2, topoisomerase I cleavage complexes (Homo sapiens, UniProt P11387).
T2 sequence (P11387 1-765): T1 sequence (P11387 1-765)
Put plainly: Salt reversal of topoisomerase I cleavage complexes. Format: biochemical. Conditions: increasing salt concentration.

`COc1cc2c(cc1OC)[C@H]1C(=O)c3cc4c(cc3[C@H]1N(C)C2=O)OCO4` (relative stereo) [Compound 20, cis-5,6,12,13-Tetrahydro-2,3-dimethoxy-6-methyl-5,11-dioxo-8,9(methylenedioxy)-(11H)indeno[1,2-c]isoquinoline]: the “induction of topoisomerase II cleavage complexes” value (“induction” for short) with human topoisomerase II is “no effect”. The pIC50 in the series on SN12C is 5.68; with UACC-62, 6.38; with MDA-MB-435 it was 4.77; in the series on DU-145, 5.39; in the series on HCT-116 it was 5.70; with HOP-62, 5.03. Moreover, the pIC50 with OVCAR-3 was 5.17; in series [1], 5.30; in the series on SF-539, 5.51. Moreover, in series [1], the “cytotoxicity (MGM) relative to lead compound 1” value is reported as “lower MGM than the lead compound 1”. In addition, the “activity in the topoisomerase I cleavage assay (in words)” value (“activity” below) at topoisomerase I is listed as “weak”. The “Top 1 Cleavage” value at topoisomerase I is “± (those compounds having less than 20% of the activity of 1 μM camptothecin)”.
As for `O=C1c2ccccc2-c2c1c1ccccc1c(=O)n2CCCCO` [Compound 7, 5,6-Dihydro-6-(4-hydroxy-1-butyl)-5,11-diketo-11H-indeno[1,2-c]isoquinoline], the “induction” value in the series with human topoisomerase II is “weak topoisomerase II activity”. The IC50 with SN12C was 7.4 µM; with UACC-62 it was 4.4 µM; in the series on MDA-MB-435, > 100 µM; in the series on DU-145, > 100 µM; in the series on HCT-116, 3.2 µM; in the series on HOP-62, 13 µM. In addition, the results for the IC50 in the series with OVCAR-3 and in the series with SF-539 were 74 µM and 4.6 µM, respectively. In series [1] (Homo sapiens), the pIC50 is 4.80. The “cytotoxicity (MGM) relative to lead compound 1” value in [1] (comparison in words) is “lower MGM than the lead compound 1”. The “Top 1 Cleavage” value on topoisomerase I was “+ (those compounds having between 20% and 50% of the activity of 1 μM camptothecin)”.
With `O=C1c2ccccc2-c2c1c1ccccc1c(=O)n2CCCCCO` [Compound 8, 5,6-Dihydroxy-6-(5-hydroxy-1-pentyl)-5,11-diketo-11H-indeno[1,2-c]isoquinoline], in the series with human topoisomerase II, the “induction” value is reported as “weak topoisomerase II activity”. The pIC50 with UACC-62 is 4.84; with MDA-MB-435 it was 4.39; with DU-145 it was 5.47; with HCT-116, 5.41; in the series with HOP-62 it was 5.36; with OVCAR-3, 4.03. Moreover, the pIC50 in series [1] is 4.85. Moreover, the “cytotoxicity (MGM) relative to lead compound 1” value in series [1] was “lower MGM than the lead compound 1”. Also, the “Top 1 Cleavage” value at topoisomerase I is “+ (those compounds having between 20% and 50% of the activity of 1 μM camptothecin)”.
Turning to `CCCCn1c2c(c3ccccc3c1=O)C(=O)c1cc3c(cc1-2)OCO3` [Compound 13b, 6-(1-Butyl)-5,6-dihydro-5,11-diketo-8,9-methylenedioxy-11H-indeno[1,2-c]isoquinoline], in the series on human topoisomerase II, the “induction” value is reported as “no effect”. In addition, the IC50 with SN12C was 37 µM; with UACC-62 it was 8.2 µM; in the series on MDA-MB-435 it was > 100 µM; in the series with DU-145, 38 µM; with HCT-116 it was 2.9 µM; in the series on HOP-62 it was 17 µM. In addition, the IC50 in the series on OVCAR-3 was 94 µM; in the series with SF-539 it was 9 µM. Moreover, the pIC50 in series [1] (Homo sapiens) was 4.52. In addition, on topoisomerase I, the “Top 1 Cleavage” value was “+ (those compounds having between 20% and 50% of the activity of 1 μM camptothecin)”.
Regarding `C=CCn1c2c(c3cc(OC)c(OC)cc3c1=O)C(=O)c1cc3c(cc1-2)OCO3` [Compound 13c, 6-Allyl-2,3-dimethoxy-5,6-dihydro-5,11-oxo-8,9-(methylenedioxy)-11H-indeno[1,2-c]isoquinoline], in series [2], the “reversal of induced cleavage sites by salt treatment” value was “reversed by salt treatment”. Besides, in the series on human topoisomerase II, the “induction” value is recorded as “no effect”. Moreover, the pIC50 in the series with SN12C was 5.59; in the series on MDA-MB-435, 5.28; in the series on DU-145, 5.49; in the series with HCT-116, 5.64; in the series with HOP-62, 5.47; with OVCAR-3, 5.18. For the same compound, the values for the pIC50 (in [1]; with SF-539) were 5.38 and 5.66, respectively. In addition, the “activity” value on topoisomerase I is reported as “rival the topoisomerase activity of 1”. The “Top 1 Cleavage” value on topoisomerase I is “+ (those compounds having between 20% and 50% of the activity of 1 μM camptothecin)”.
Take `CCn1c2c(c3cc(OC)c(OC)cc3c1=O)C(=O)c1cc3c(cc1-2)OCO3` [Compound 13k, 6-Ethyl-5,6-dihydro-5,11-diketo-2,3-dimethoxy-8,9-methylenedioxy-11H-indeno[1,2-c]isoquinoline]: the “induction” value in the series on human topoisomerase II is listed as “no effect”. The IC50 in the series on SN12C was 3.6 µM; with UACC-62, 2.1 µM; in the series on MDA-MB-435, 2.6 µM; in the series on DU-145, 2.3 µM; in the series on HCT-116, 2.6 µM; in the series with HOP-62, 2.2 µM. Also, the results for the IC50 in the series on OVCAR-3 and in the series on SF-539 were 3 µM and 2 µM, respectively. Besides, the pIC50 in [1] (Homo sapiens) is 5.62. Besides, the “cytotoxicity (MGM) relative to lead compound 1” value in [1] (comparison in words) was “lower MGM than the lead compound 1”. Moreover, the “activity” value at topoisomerase I is “very weak activity”. Besides, on topoisomerase I, the “Top 1 Cleavage” value was “± (those compounds having less than 20% of the activity of 1 μM camptothecin)”.
On to `CC[C@@]1(O)C(=O)OCc2c1cc1n(c2=O)Cc2cc3ccccc3nc2-1` [Compound 34, camptothecin, reference compound], for which the “reversal of induced cleavage sites by salt treatment” value in [2] was “reversed by salt treatment”.
